Here are results for twelve compounds from US11001808B2, “Immortalization of epithelial cells and methods of use” (Georgetown University, priority 2010, dated 2021).

Entries after “also recorded” stand apart in the source; their conditions may differ.

In series [1] the test system is human prostate cells. In words: Proliferation in serum-containing F medium with Rho-Rock-Myosin pathway inhibitors, Crystal Violet staining (FIG. 23). Type of series: cell-based. Particulars: about 5000 cells in 6-well plates, 8 days, Y-27632 5 μM, HA-1100 20 μM, GSK429286 0.1 μM, Fasudil 30 μM, C3 transferase 2 μg/ml, Blebbistatin 5 μM. On the procedure:
FIG. 23 depicts that inhibition of the Rho-Rock-Myosin pathway prevents cells from terminally differentiating, allowing the cells to proliferate in serum-containing medium. Normally, serum-containing medium induces terminal differentiation of primary epithelial cells and, in turn, causes senescence in culture. Approximately 5000 human prostate cells were plated in 6-well plates in F medium with addition of Rock inhibitors Y-27632 (5 μM), HA-1100 (20 μM), GSK429286 (0.1 μM), Fasudil (30 μM), a Rho inhibitor (C3 transferase, 2 μg/ml), or a Mysin inihibitor (-Blebbistatin, 5 μM). Eight days later, cells were fixed and stained with 0.05% Crystal Violet.
As used herein, inhibiting ROCK can mean to reduce the activity, function or expression of at least one of ROCK1 or ROCK2. […] In general, ROCK phosphorylates LIM kinase and myosin light chain (MLC) phosphatase after being activated through binding of GTP-bound Rho. One embodiment of the present invention thus involves blocking the upstream pathway of ROCK1 and/or ROCK2, for example GTP-bound Rho, such that ROCK1 and/or ROCK2 is not activated or its activity is reduced over untreated cells. Other upstream effectors include but are not limited to, integrins, growth factor receptors, including but not limited to, TGF-beta and EGFR, cadherins, G protein coupled receptors and the like. Another embodiment of the present invention thus involves blocking the activity, function or expression of downstream effector molecules of activated ROCK1 and/or ROCK2 such that ROCK1 and/or ROCK2 can not propagate any signal or can only propagate a reduced signal over untreated cells. Downstream effectors include but are not limited to, Myosin phosphatase-targeting protein (MYPT), vimentin, LIMK, Myosin light chain kinase, NHE1, cofilin, Myosin II and the like. […] Upstream or downstream inhibition of ROCK, in place of direct ROCK inhibition and in conjunction with the other culture conditions described and required herein, may or may not generate conditionally immortalized NKE cells.

Series [2] deals with HPV-11-containing tumor cells from the patient. Put plainly: Cell viability curves (CellTiter-Glo Luminescent Cell Viability Assay), patient's cultured tumor cells. Format: cell-based, human. The conditions noted are these: for sensitivity of tumor cells compared with normal lung cells: tumor versus normal lung cells of the same patient, 24 hours. The procedure:
(§1) Normal and tumor cells were treated with Cidofovir, Vorinostat or DHA at indicated concentration for 24 hours. Cell viabilities were measured using CellTiter-Glo® Luminescent Cell Viability Assay (Promega)
(§2) There is no data in the literature, however, analyzing the effect of these inhibitors on cells containing low-risk HPVs, because there are no cell lines established that contain HPV-6 or HPV-11. […] More importantly, this cell line was used to evaluate the sensitivity to the above inhibitors and to compare it to the sensitivity of normal lung cells isolated from the same patient (FIG. 17).
(§3) Cidovovir is the most common drug used for treating RRP.
On the technique in general: Cellular ATP, detected with luciferase, serves as a proxy for viable cell number.

In series [3] the test system is recurrent papillomatosis of the larynx. Particulars: patient history: interferon 1996-2010, Methotrexate 2001-03, intralesional Cidofovir 2007-2010, intralesional Avastin 2010; cited from earlier work.
The subject of series [4] is cervical cancer cells that express the high-risk HPVs. Particulars: previous studies; cited from earlier work.
The test system of series [5] is airway epithelial cells. Particulars: Moore et al., 2004; cited from earlier work.
Series [6] relates to normal lung cells. Put plainly: Cell viability curves (CellTiter-Glo Luminescent Cell Viability Assay), normal cells of the same patient. Particulars: treated 24 hours, cell type of the LD50 not stated, taken as normal lung cells from context. The procedure: as §1, §2, §3
Series [7] has as its system recurrent respiratory papillomatosis. In words: Vorinostat therapy of the patient, follow-up by CT scan. Format: in vivo, human. Particulars: one patient, 400 mg/daily, 4 week cycle (3 weeks on, 1 week off). The text has this: A patient with recurrent papillomatosis of the larynx for 16 years was chosen for this study. The disease progressively involved not only the larynx, but had spread to the upper airway (trachea and bronchi) and recently into the lung parenchyma. The patient had had more than 350 surgeries. Besides surgeries, multiple treatments had failed, including interferon treatment (1996-2010), Methotrexate (2001-03), intralesional Cidofovir (2007-2010), and intralesional Avastin (2010). […] By October 2010, the size each lung lesion examined was increasing. During the last surgical intervention, a wedge resection of the right upper lobe was performed to remove metastatic tumor. […] Koilocytotic changes in such tumors are an indication that the tumor is producing infectious HPV. However, at the time of intervention, the type of HPV involved in this tumor had not been identified. Since the tumor had not responded to several different treatment modalities, it was also unclear how the patient would be treated following surgery.
Based on the in vitro sensitivity data, the patient was placed on Vorinostat therapy in January of 2011. The therapy consisted 4 week cycle (3 weeks on, 1 week off) of Vorinostat at 400 mg/daily. […] Thus, the use of the cell culture methods of the present invention were critical in determining a response profile of the abnormal cells, which enabled the identification of at least two chemotherapeutic agents that might be useful for treating this patient's tumors. Using the cell culture methods of the present invention, the response profile, including the genetic analysis and the therapeutic index, was generated within one week of biopsy.

The subject of series [8] is human primary mammary cells. In words: In vitro growth curves under various growth conditions (FIG. 2B). Type of series: cell-based. On the procedure: (§4) FIGS. 2A-2B depict in vitro growth curves of human primary prostate cells and human primary mammary cells under various growth conditions. (A) PrEGM is a synthetic commercial prostate epithelial cell growth medium; (B) MEGM is a synthetic commercial mammary epithelial cell medium; Feeders are J2 mouse fibroblasts that have been irradiated or treated with mitomycin C; ROCK inhibitor is Y27632 at a concentration of 10 μM that was applied to the cells at initial plating and thereafter. The y-axis is population doublings and the x-axis is number of days. Media was changed every 3 days for all groups.
(§5) Primary HMECs and HPECs were grown under the four different conditions noted in FIG. 2. […] Feeders were the J2 mouse fibroblasts that have been gamma irradiated. The ROCK inhibitor was Y27632 at a concentration of 10 μM that was applied to the cells at initial plating and thereafter. The y-axis is population doublings and the x-axis is number of days. Media was changed every 2-3 days for all groups.
(§6) Cells grown in the presence of the feeder cells in F medium without ROCK inhibitor had about the same growth rate, i.e., the slope of the lines was about the same, but the cells grown in the presence of feeder cells eventually stopped growing.

Series [9] has as its system human primary prostate cells. Put plainly: In vitro growth curves under various growth conditions (FIG. 2A). Type of series: cell-based. The procedure: as §4, §5, §6
[10] abbreviates: F medium, irradiated J2 feeders, 10 μM from initial plating.

Take `Cc1ccc2c(c1)C(=O)C1(O)CCN(c3ccccc3)C1=N2` (stereo not shown) [Blebbistatin]: the “suppression of serum-induced differentiation / proliferation in serum-containing medium” value was “able to suppress cell differentiation by serum” in [1]; “allow the cells to bypass differentiation and allow proliferation in vitro” in [1] (listed as blebbistatin).
Consider `Nc1ccn(C[C@@H](CO)OCP(=O)(O)O)c(=O)n1` [Cidofovir], for which the “effect on cell viability in vitro” value in series [2] (very high concentrations (50-200 μM), 24 hours (FIG. 17A)) was “completely ineffective”. Moreover, the “outcome of earlier treatment” value in [3] is on record as “failed”.
In the case of `C[C@H]1[C@@H](O)O[C@@H]2O[C@@]3(C)CC[C@H]4[C@H](C)CC[C@@H]1[C@@]24OO3` [DHA], the “sensitivity of tumor cells compared with normal lung cells” value in [2] was “approximately 100 fold”. Also, in series [4], the “killing of cervical cancer cells” value was “able to efficiently kill”.
For the compound `O=S(=O)(c1cccc2cnccc12)N1CCCNCC1` [Fasudil], the “effect of inhibition on airway epithelial cells” value in [5] was “induces membrane ruffling, loss of actin stress fibers and apoptosis”. For the same compound, the “suppression of serum-induced differentiation / proliferation in serum-containing medium” value in series [1] is listed as “able to suppress cell differentiation by serum”.
For the compound `CC1=C(C(=O)Nc2cc3cn[nH]c3cc2F)C(c2ccc(C(F)(F)F)cc2)CC(=O)N1` (stereo not shown) [GSK429286], the “suppression of serum-induced differentiation / proliferation in serum-containing medium” value in [1] is recorded as “able to suppress cell differentiation by serum”.
Take `O=S(=O)(c1cccc2c(O)nccc12)N1CCCNCC1` [HA-1100]: the “suppression of serum-induced differentiation / proliferation in serum-containing medium” value in series [1] was “able to suppress cell differentiation by serum”.
On to `CN(Cc1cnc2nc(N)nc(N)c2n1)c1ccc(C(=O)N[C@@H](CCC(=O)O)C(=O)O)cc1` [Methotrexate], for which, in series [3], the “outcome of earlier treatment” value was “failed”.
For the compound `O=C(CCCCCCC(=O)Nc1ccccc1)NO` [SAHA], the “sensitivity of tumor cells compared with normal lung cells” value in series [2] is on record as “approximately 100 fold”. For the same compound, the LD50 result in [6] is “approximately 200 μM”. Also, in [7], the “lesions in more recent CT scan” value is reported as “all lesions had stabilized”; the “lesions in subsequent CT scan” value is “no new lesions were identified, smaller lesions were shrinking, and some larger lesions were also decreasing in size”; the side effects result is reported as “no major side effects had been observed”.
With `C[C@@H](N)[C@H]1CC[C@H](C(=O)Nc2ccncc2)CC1` [Y-27632], the “effect of inhibition on airway epithelial cells” value in series [5] is “induces membrane ruffling, loss of actin stress fibers and apoptosis”. For the same compound, the “suppression of serum-induced differentiation / proliferation in serum-containing medium” value in [1] is “able to suppress cell differentiation by serum”. The “growth (population doublings) with feeder cells in F medium plus ROCK inhibitor” value in [8] (setting [10]) and in [9] (setting [10]) was “have continued to grow” throughout. For the same compound, the “growth (population doublings) on addition of ROCK inhibitor to synthetic medium” value is recorded as “did not affect growth” in series [8] (MEGM synthetic serum-free medium, 10 μM, no feeders) and “did not affect growth” in [9] (PrEGM synthetic serum-free medium, 10 μM, no feeders).
Take `C[C@H]1[C@H](OC(=O)CCC(=O)O)O[C@@H]2O[C@@]3(C)CC[C@H]4[C@H](C)CC[C@@H]1[C@@]24OO3` [artesunate]: the “killing of cervical cancer cells” value in series [4] was “able to efficiently kill”.
Consider “Avastin: intralesional Avastin, earlier treatment of the patient”, for which the “outcome of earlier treatment” value in series [3] is “failed”.
Consider C3 transferase, for which, in series [1], the “suppression of serum-induced differentiation / proliferation in serum-containing medium” value is “able to suppress cell differentiation by serum; also recorded: allow the cells to bypass differentiation and allow proliferation in vitro”.
